CC(=O)c1cnccn1
solubility (mole fraction)
Settings	268.35 K	273.15 K	278.15 K	283.21 K	288.15 K	293.05 K	298.15 K	303.15 K	308.35 K
in DMF	0.0822	0.0972	0.116	0.139	0.165	0.194	0.23	0.269	0.314
in NMP	0.117	0.129	0.15	0.174	0.203	0.234	0.271	0.31	0.355
in acetone	0.0511	0.0601	0.0727	0.0826	0.0977	0.119	0.137	0.153	0.174
in ethanol	0.0073	0.0111	0.0136	0.0178	0.0231	0.0347	0.0433	0.0542	0.0727
in ethyl acetate	0.0636	0.0746	0.0889	0.101	0.116	0.144	0.164	0.186	0.209
in isopropanol	0.0052	0.0075	0.0106	0.0128	0.0195	0.0299	0.0382	0.0509	0.0698
in methanol	0.013	0.0156	0.0179	0.0224	0.0281	0.0405	0.0485	0.0596	0.077

Source: BigSolDB 2.1
